From patent publication US10047098B2, “C5-C6-oxacyclic fused iminopyrimidinone compounds as bace inhibitors, compositions, and their use” (Merck Sharp & Dohme Corp., priority 2014, dated 2018)

Legend:
[1] = target: Recombinant human soluble BACE1 catalytic domain (Homo sapiens (Human), UniProt P56817); experiment: BACE1 HTRF FRET Assay; format: biochemical; details: Ki calculated from IC50 using the Cheng-Prusoff equation; QSY7-APPswe-Eu substrate, pH 5.0; read-out: BACE-1 Ki
Source text: Reagents: Na^+-Acetate pH 5.0; 1% Brij-35; Glycerol; Dimethyl Sulfoxide (DMSO); Recombinant human soluble BACE1 catalytic domain (>95% pure); APP Swedish mutant peptide substrate (QSY7-APP^swe-Eu): QSY7-EISEVNLDAEFC-Europium-amide.
A homogeneous time-resolved FRET assay can be used to determine IC50 values for inhibitors of the soluble human BACE1 catalytic domain. This assay monitors the increase of 620 nm fluorescence that resulted from BACE1 cleavage of an APPswedish APP^swe mutant peptide FRET substrate (QSY7-EISEVNLDAEFC-Europium-amide). This substrate contains an N-terminal QSY7 moiety that serves as a quencher of the C-terminal Europium fluorophore (620 nm Em). In the absence of enzyme activity, 620 nm fluorescence is low in the assay and increased linearly over 3 hours in the presence of uninhibited BACE1 enzyme. Inhibition of BACE1 cleavage of the QSY7-APP^swe-Eu substrate by inhibitors is manifested as a suppression of 620 nm fluorescence.
Varying concentrations of inhibitors at 3× the final desired concentration in a volume of 10 ul are preincubated with purified human BACE1 catalytic domain (3 nM in 10 μl) for 30 minutes at 30° C. in reaction buffer containing 20 mM Na-Acetate pH 5.0, 10% glycerol, 0.1% Brij-35 and 7.5% DSMO. Reactions are initiated by addition of 10 μl of 600 nM QSY7-APP^swe-Eu substrate (200 nM final) to give a final reaction volume of 30 μl in a 384 well Nunc HTRF plate. The reactions are incubated at 30° C. for 1.5 hours. The 620 nm fluorescence is then read on a Rubystar HTRF plate reader (BMG Labtechnologies) using a 50 millisecond delay followed by a 400 millisecond acquisition time window. Inhibitor IC50 values are derived from non-linear regression analysis of concentration response curves. Ki values are then calculated from IC50 values using the Cheng-Prusoff equation using a previously determined […] of 8 μM for the QSY7-APP^swe-Eu substrate at BACE1.

[2] = target: purified human autoBACE-2 (Homo sapiens (Human), UniProt Q9Y5Z0); experiment: BACE-2 Assay (BACE-HTRF assay); format: biochemical; details: Ki calculated from IC50 using the Cheng-Prusoff equation; QSY7-EISEVNLDAEFC-Eu-amide substrate, pH 5.0
Procedure: Inhibitor IC50s at purified human autoBACE-2 are determined in a time-resolved endpoint proteolysis assay that measures hydrolysis of the QSY7-[…]-Eu-amide FRET peptide substrate (BACE-HTRF assay). […] DMSO is present at 5% final concentration in the assay. Following laser excitation of sample wells at 320 nm, the fluorescence signal at 620 nm is collected for 400 ms following a 50 μs delay on a RUBYstar HTRF plate reader (BMG Labtechnologies). Raw RFU data is normalized to maximum (1.0 nM BACE/DMSO) and minimum (no enzyme/DMSO) RFU values. […] The Ki values are calculated from the IC50 using the Cheng-Prusoff equation.

Recombinant human soluble BACE1 catalytic domain, sequence (P56817 75-416): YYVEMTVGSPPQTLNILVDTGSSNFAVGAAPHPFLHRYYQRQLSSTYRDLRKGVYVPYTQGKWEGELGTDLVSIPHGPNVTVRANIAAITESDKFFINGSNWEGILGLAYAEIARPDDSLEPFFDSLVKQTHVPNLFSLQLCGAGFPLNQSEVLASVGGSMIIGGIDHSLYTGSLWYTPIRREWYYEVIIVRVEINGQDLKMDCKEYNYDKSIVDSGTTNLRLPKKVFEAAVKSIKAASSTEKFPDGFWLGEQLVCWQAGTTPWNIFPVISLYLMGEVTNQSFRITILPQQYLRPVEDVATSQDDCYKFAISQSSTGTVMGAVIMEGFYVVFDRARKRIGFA
purified human autoBACE-2, sequence (Q9Y5Z0 63-473 limits assumed): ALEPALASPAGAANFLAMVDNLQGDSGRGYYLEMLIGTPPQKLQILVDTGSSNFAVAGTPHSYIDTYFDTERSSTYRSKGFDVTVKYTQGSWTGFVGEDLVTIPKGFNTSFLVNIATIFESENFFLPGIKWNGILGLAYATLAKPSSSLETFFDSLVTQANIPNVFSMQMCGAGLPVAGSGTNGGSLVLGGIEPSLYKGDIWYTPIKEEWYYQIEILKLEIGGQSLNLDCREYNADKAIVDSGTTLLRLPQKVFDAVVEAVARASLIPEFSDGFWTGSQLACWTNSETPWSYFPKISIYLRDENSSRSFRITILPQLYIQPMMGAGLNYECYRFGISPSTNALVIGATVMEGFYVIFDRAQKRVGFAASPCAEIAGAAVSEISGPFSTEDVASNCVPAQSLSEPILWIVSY

| Ki [1] | Ki [2] | Compound |
| --- | --- | --- |
| 52 nM | 23 nM | CN1C(=N)N[C@@]2(c3cc(Oc4cc(-n5cccn5)ncn4)ccc3F)CO[C@@H](C3CC3)C[C@H]2C1=O [Example 13, (4aR,6R,8aS)-8a-(5-((6-(1H-pyrazol-1-yl)pyrimidin-4-yl)oxy)-2-fluorophenyl)-6-cyclopropyl-2-imino-3-methylhexahydro-1H-pyrano[3,4-d]pyrimidin-4(4aH)-one] |
| 1200 nM | 298 nM | CN1C(=N)N[C@@]2(c3cc(Br)ccc3F)COCC[C@H]2C1=O [Example 86, (4aR,8aS)-8a-(5-bromo-2-fluorophenyl)-2-imino-3-methylhexahydro-IH-pyrano[3,4-d]pyrimidin-4(4aH)-one] |
| 8.5 nM | 22.3 nM | C[C@H]1C[C@H]2C(=O)N(C)C(=N)N[C@@]2(c2cc(Oc3cc(F)cnc3F)ccc2F)CO1 [Example 80, (4aR,6S,8aS)-8a-(5-((2,5-difluoropyridin-3-yl)oxy)-2-fluorophenyl)-2-imino-3,6-dimethylhexahydro-1H-pyrano[3,4-d]pyrimidin-4(4aH)-one] |
| 7 nM | 5 nM | C[C@H]1C[C@H]2C(=O)N(C)C(=N)N[C@@]2(c2cc(Oc3ncccc3F)ccc2F)CO1 [Example 19, (4aR,6S,8aS)-8a-(2-fluoro-5-((3-fluoropyridin-2-yl)oxy)phenyl)-2-imino-3,6-dimethylhexahydro-1H-pyrano[3,4-d]pyrimidin-4(4aH)-one] |
| 110 nM | 105 nM | C[C@H]1C[C@H]2C(=O)N(C)C(=N)N[C@@]2(c2ccc(F)cc2F)CO1 [Example 11, (4aR,65,8aS)-8a-(2,4-difluorophenyl)-2-imino-3,6-dimethylhexahydro-1H-pyrano[3,4-d]pyrimidin-4(4aH)-one] |
| 16 nM | 54 nM | CN1C(=N)N[C@@]2(c3cc(Oc4cncc(C(F)F)n4)ccc3F)CO[C@@H](C3CC3)C[C@H]2C1=O [Example 29, (4aR,6R,8aS)-6-cyclopropyl-8a-(5-((6-(difluoromethyl)pyrazin-2-yl)oxy)-2-fluorophenyl)-2-imino-3-methylhexahydro-1H-pyrano[3,4-d]pyrimidin-4(4aH)-one] |
| 60 nM | 228 nM | CN1C(=N)N[C@@]2(c3cc(Oc4ccnc(C(F)F)c4)ccc3F)CO[C@@H](C3CC3)C[C@H]2C1=O [Example 20] |
| 27 nM | 13.5 nM | CN1C(=N)N[C@@]2(c3cc(Oc4ncccc4F)ccc3F)COCC[C@H]2C1=O [Example 87, (4aR,8aS)-8a-(2-fluoro-5-((3-fluoropyridin-2-yl)oxy)phenyl)-2-imino-3-methylhexahydro-1H-pyrano[3,4-d]pyrimidin-4(4aH)-one] |
| 402 nM | 235 nM | Cc1nccnc1Oc1ccc(F)c([C@]23CO[C@@H](C)C[C@H]2C(=O)N(C)C(=N)N3)c1 [Example 70, (4aR,6S,8aS)-8a-(2-fluoro-5-((3-methylpyrazin-2-yl)oxy)phenyl)-2-imino-3,6-dimethylhexahydro-1H-pyrano[3,4-d]pyrimidin-4(4aH)-one] |
| 43 nM | 42 nM | CN1C(=N)N[C@@]2(c3cc(Oc4ccnc(-n5cncn5)c4)ccc3F)CO[C@@H](C3CC3)C[C@H]2C1=O [Example 16, (4aR,6R,8aS)-8a-(5-((2-(1H-1,2,4-triazol-1-yl)pyridin-4-yl)oxy)-2-fluorophenyl)-6-cyclopropyl-2-imino-3-methylhexahydro-1H-pyrano[3,4-d]pyrimidin-4(4aH)-one] |
| 136 nM | 627 nM | CN1C(=N)N[C@@]2(c3cc(-c4cncnc4)ccc3F)CO[C@@H](C3CC3)C[C@H]2C1=O [Example 28, (4aR,6R,8aS)-6-cyclopropyl-8a-(2-fluoro-5-(pyrimidin-5-yl)phenyl)-2-imino-3-methylhexahydro-1H-pyrano[3,4-d]pyrimidin-4(4aH)-one] |
| 2 nM | 13 nM | CN1C(=N)N[C@@]2(c3cc(Oc4cc(C#N)ccn4)ccc3F)CO[C@@H](C3CC3)C[C@H]2C1=O [Example 14, 2-(3-((4aR,6R,8aS)-6-cyclopropyl-2-imino-3-methyl-4-oxohexahydro-1H-pyrano[3,4-d]pyrimidin-8a(8H)-yl)-4-fluorophenoxy)isonicotinonitrile] |
| 39.9 nM | 15 nM | COc1ccnc(Oc2ccc(F)c([C@]34CO[C@@H](C)C[C@H]3C(=O)N(C)C(=N)N4)c2)c1 [Example 71, (4aR,6S,8aS)-8a-(2-fluoro-5-((4-methoxypyridin-2-yl)oxy)phenyl)-2-imino-3,6-dimethylhexahydro-1H-pyrano[3,4-d]pyrimidin-4(4aH)-one] |
| 27 nM | 46 nM | CN1C(=N)N[C@@]2(c3cc(Oc4cccc(C#N)c4)ccc3F)CO[C@@H](C3CC3)C[C@H]2C1=O [Example 25, 3-(3-((4aR,6R,8aS)-6-cyclopropyl-2-imino-3-methyl-4-oxohexahydro-1H-pyrano[3,4-d]pyrimidin-8a(8H)-yl)-4-fluorophenoxy)benzonitrile] |
| 468 nM | 155 nM | COc1cc([C@]23CO[C@@H](C)C[C@H]2C(=O)N(C)C(=N)N3)c(F)cn1 [Example 91, (4aR,6S,8aS)-8a-(5-fluoro-2-methoxypyridin-4-yl)-2-imino-3,6-dimethylhexahydro-1H-pyrano[3,4-d]pyrimidin-4(4aH)-one] |
| 106 nM | 65 nM | CN1C(=N)N[C@@]2(c3cc(Oc4ccnnc4)ccc3F)CO[C@@H](C3CC3)C[C@H]2C1=O [Example 41, (4aR,6R,8aS)-6-cyclopropyl-8a-(2-fluoro-5-(pyridazin-4-yloxy)phenyl)-2-imino-3-methylhexahydro-1H-pyrano[3,4-d]pyrimidin-4(4aH)-one] |
| 13 nM | 8 nM | C[C@H]1C[C@H]2C(=O)N(C)C(=N)N[C@@]2(c2cc(OCC3CC3)ccc2F)CO1 [Example 23, (4aR,6S,8aS)-8a-(5-(cyclopropylmethoxy)-2-fluorophenyl)-2-imino-3,6-dimethylhexahydro-1H-pyrano[3,4-d]pyrimidin-4(4aH)-one] |
| 92 nM | 68 nM | COCCOc1ccc(F)c([C@]23CO[C@@H](C4CC4)C[C@H]2C(=O)N(C)C(=N)N3)c1 [Example 50, (4aR,6R,8aS)-6-cyclopropyl-8a-(2-fluoro-5-(2-methoxyethoxy)phenyl)-2-imino-3-methylhexahydro-1H-pyrano[3,4-d]pyrimidin-4(4aH)-one] |
| 3 nM | 20 nM | COC[C@H]1C[C@H]2C(=O)N(C)C(=N)N[C@@]2(c2cc(Oc3cc(F)cnc3F)c(F)cc2F)CO1 [Example 59, (4aR,6R,8aS)-8a-(5-((2,5-difluoropyridin-3-yl)oxy)-2,4-difluorophenyl)-2-imino-6-(methoxymethyl)-3-methylhexahydro-1H-pyrano[3,4-d]pyrimidin-4(4aH)-one] |
| 5720 nM | 9300 nM | COC[C@@H]1C[C@H]2C(=O)N(C)C(=N)N[C@@]2(c2ccc(F)cc2F)CO1 [Example 47, (4aR,6S,8aS)-8a-(2,4-difluorophenyl)-2-imino-6-(methoxymethyl)-3-methylhexahydro-1H-pyrano[3,4-d]pyrimidin-4(4aH)-one] |
| 44 nM | 5.96 nM | CN1C(=N)N[C@@]2(c3cc(OCC4CC4)ccc3F)COCC[C@H]2C1=O [Example 88, (4aR,8aS)-8a-(5-(cyclopropylmethoxy)-2-fluorophenyl)-2-imino-3-methylhexahydro-1H-pyrano[3,4-d]pyrimidin-4(4aH)-one] |
| 16.1 nM | 4.46 nM | C=CCCOc1cc([C@]23CO[C@@H](C)C[C@H]2C(=O)N(C)C(=N)N3)c(F)cn1 [Example 93, (4aR,6S,8aS)-8a-(2-(but-3-en-1-yloxy)-5-fluoropyridin-4-yl)-2-imino-3,6-dimethylhexahydro-1H-pyrano[3,4-d]pyrimidin-4(4aH)-one] |
| 295 nM | 32.3 nM | Cc1cccnc1Oc1ccc(F)c([C@]23CO[C@@H](C)C[C@H]2C(=O)N(C)C(=N)N3)c1 [Example 73, (4aR,6S,8aS)-8a-(2-fluoro-5-((3-methylpyridin-2-yl)oxy)phenyl)-2-imino-3,6-dimethylhexahydro-lH-pyrano[3,4-d]pyrimidin-4(4aH)-one] |
